Assay results: patent US12427200B2 (priority 2019, dated 2025)
pEC50, pIC50: −log10 of the molar value. Where “and” joins values, the source holds several entries; their conditions need not be identical. Equal entries are not always repeated. Where two headings read alike, the source gives them in different places.

Key:
[1] = system: influenza A/Ca/07/2009 (H1N1)pdm; assay type: cell-based, Influenza A virus
[2] = system: A/Texas/36/91 (H1N1); design: species or system BALB/c mice; settings: mouse, in vivo
[3] = system: influenza A H1N1 strains; design: species or system Influenza A virus; settings: read-out: cell-based cytopathic effect assay (median EC50)
[4] = system: A/Puerto Rico/8/1934 (H1N1); design: species or system BALB/c mice; settings: mouse, in vivo
[5] = system: A/Netherlands/602/2009 (H1N1); assay type: cell-based, Influenza A virus
[6] = system: neuraminidase of influenza B viruses; assay type: biochemical; settings: read-out: neuraminidase inhibition (median IC50)
[7] = system: A/Indonesia/5/2005 (H5N1, clade 2.1); assay type: cell-based, Influenza A virus
[8] = system: H3N2 A/Hong Kong/1/68; assay type: in vivo, mouse; settings: 15 days
[9] = system: A/Puerto Rico/08/1934 (H1N1), PR8; assay type: in vivo, mouse; settings: 10 days
[10] = system: H1N1 WT (A/California/12/2012); assay type: cell-based, Influenza A virus
[11] = system: INFV B (B/Brisbane); assay: microbe, parasite or virus in culture; assay type: cell-based, Influenza B virus; settings: read-out: EC50 vs INFV B
[12] = system: A/turkey/Turkey/1/2005 (H5N1, clade 2.2); assay type: cell-based, Influenza A virus
[13] = system: influenza A/WSN/1933; assay type: cell-based, Influenza A virus
[14] = system: A/Texas/36/91 (H1N1); settings: mouse, in vivo
[15] = system: H3N2 WT (A/Washington/12/2007); assay type: cell-based, Influenza A virus
[16] = system: H5N1 isolates (high path influenza A); assay type: cell-based, Influenza A virus
[17] = system: influenza A H3N2 strains; design: species or system Influenza A virus; settings: read-out: cell-based cytopathic effect assay (median EC50)
[18] = system: A/Hong Kong/156/1997 (H5N1, clade 0); assay type: cell-based, Influenza A virus
[19] = system: A/Anhui/01/2013 (H7N9); assay type: cell-based, Influenza A virus
[20] = system: influenza A/Puerto Rico/8/1934 (H1N1); design: species or system BALB/c mice; settings: mouse, in vivo
[21] = system: influenza A/CA/07/2009; design: species or system BALB/c mice; settings: mouse, in vivo, po, 5 mg/kg
[22] = system: influenza B strains; design: species or system Influenza B virus; settings: read-out: cell-based cytopathic effect assay (median EC50)
[23] = system: INF-γ, TNF-α, IL-6, MIP-1α, MCP-1 in lung homogenate; design: species or system BALB/c mice; settings: mouse, in vivo
[24] = system: neuraminidase of live influenza A (H3N2) viruses; assay: biochemical; design: species or system Influenza A virus; settings: read-out: neuraminidase inhibition (median IC50)
[25] = system: INFV A (A/CA/09 H1N1); assay: microbe, parasite or virus in culture; assay type: cell-based, Influenza A virus; settings: read-out: EC50 vs INFV A
[26] = system: B (B/Malaysia/2506/2004); assay type: cell-based, Influenza B virus
[27] = system: B/Brisbane/60/2008; design: species or system BALB/c mice; settings: mouse, in vivo
[28] = system: lung cytokines; design: species or system BALB/c mice; settings: mouse, in vivo, po, 5 mg/kg
[29] = system: lung cytokines; design: species or system BALB/c mice; settings: mouse, in vivo, po
[30] = system: A/Vietnam/1203/2004 (H5N1); design: species or system BALB/c mice; settings: mouse, in vivo
[31] = system: A/PR/8/34 (H1N1); design: species or system BALB/c mice; settings: mouse, in vivo
[32] = system: influenza A/PR/8/1934; design: species or system BALB/c mice; settings: mouse, in vivo; for Log reduction PFU/g / Viral burden PFU/g: po
[33] = system: A/CA/12/12 (H1N1); design: species or system BALB/c mice; settings: mouse, in vivo
[34] = system: A/Puerto Rico/8/1934 (H1N1); settings: mouse, in vivo
[35] = system: H7N9 isolate (high path influenza A); assay type: cell-based, Influenza A virus
[36] = system: influenza A/CA/07/2009 (H1N1) pdm; assay type: cell-based, Influenza A virus
[37] = system: influenza B; assay type: cell-based, Influenza B virus
[38] = system: neuraminidase of live influenza A (H1N1) viruses; assay: biochemical; assay type: biochemical, Influenza A virus; settings: read-out: neuraminidase inhibition (median IC50)
[39] = read-out: IC50 for viral replication
[40] = read-out: microneutralization (IC50)

For `CCOC(=O)C1=C[C@@H](OC(CC)CC)[C@H](NC(C)=O)[C@@H](N)C1` [Oseltamivir, oseltamivir], the pEC50 ([1]; read-out: EC50, MOI 0.1) was under 5.00, the pEC50 ([1]; read-out: EC50, MOI 1) was under 5.00 and the Protection [2] was “no protection”. It also gave a Survival [2] of 40%, a Survival ([2]; 200 mg/kg) of 80% and a pEC50 [3] of 5.62. The Survival [4] was 0%, the Survival ([4]; 200 mg/kg) was 40% and the “EC100 (CPE in MDCK cells)” value [5] was about 1000 nM. For the same molecule, the pIC50 [5, 39] was at most 6.52, the pIC50 [5, 40] was under 6.52 and the pIC50 [6] was […]. For the same molecule, the “EC100 (CPE in MDCK cells)” value [7] was about 200 to 500 nM, the “% Survival” value [8] was 80% and the “% Survival” value [9] was 20%. For the same molecule, the pEC50 [10] was under 7.00, the pEC50 [11] was 5.97 and the “EC100 (CPE in MDCK cells)” value [12] was about 125 to 250 nM. The pEC50 ([13]; read-out: EC50, MOI 0.001) was 5.41, the pEC50 ([13]; read-out: EC50, MOI 0.01) was under 5.00 and the pEC50 ([13]; read-out: EC50, MOI 0.1) was under 5.00. For the same molecule, the pEC50 ([13]; read-out: EC50, MOI 1) was under 5.00, the pEC50 ([13]; read-out: EC50, MOI 10) was under 5.00 and the “% Survival (Day 14)” value [14] was 100%. For the same molecule, the pEC50 [15] was 7.53, the pIC50 [16, 39] was ≤ 6.52 and 6.77 and the pIC50 [16, 40] was 6.77 and < 6.52. For the same molecule, the pEC50 [17] was 5.09, the “EC100 (CPE in MDCK cells)” value [18] was over 1000 nM and the “EC100 (CPE in MDCK cells)” value [19] was about 500 to 1000 nM. For the same molecule, the “Log reduction (PFU/mL)” value [20] was 0.24 Log and 0.52 Log, the “Log reduction PFU/g” value [21] was −0.08 and the “Viral burden PFU/g” value [21] was 2.05E+07 PFU/g. For the same molecule, the pEC50 [22] was 6.12, the “IL-6 lung cytokine level” value [23] was 1.8 and 1.4 and the “INF-γ lung cytokine level” value [23] was 1.0 and 0.8. The “MCP-1 lung cytokine level” value [23] was 24.0 and 16.2, the “MIP-1a lung cytokine level” value [23] was 6.3 and 4.0 and the “TNF-α lung cytokine level” value [23] was 0.8. It also gave a pIC50 [24] of […], a pEC50 [25] of 6.41 and a pEC50 [26] of 7.66. It also gave a Survival [27] of 40%, an IL-6 [28] of 714.2 pg/mL and an IL-6 ([29]; 5 mg/kg) of 714.2 pg/mL. For the same molecule, the MCP-1 ([29]; 5 mg/kg) was 5301.6 pg/mL, the KC ([29]; 50 mg/kg) was 2705.5 pg/mL and the MCP-1 ([29]; 50 mg/kg) was 4572.8 pg/mL. For the same molecule, the MIP-1α ([29]; 50 mg/kg) was 948.2 pg/mL, the TNF-α ([29]; 50 mg/kg) was 501.7 pg/mL and the Protection [30] was 90%. The “Day until which death was delayed” value [31] was 10 days, the Survival [31] was 0% and the Survival / protection [31] was 80%. The Viral load reduction [32] was “ca. 0.8 log”, the “Log reduction PFU/g” value ([32]; 5 mg/kg) was 0.83 and the “Viral burden PFU/g” value ([32]; 5 mg/kg) was 2.86E+06 PFU/g. For the same molecule, the “Log reduction PFU/g” value ([32]; 50 mg/kg) was 0.86, the “Viral burden PFU/g” value ([32]; 50 mg/kg) was 2.66E+06 PFU/g and the “Protection from lethal challenge” value [33] was “unprotective”. For the same molecule, the Survival [33] was 40%, the “day by which mice reached mortality” value [34] was at most 8 days and the “loss of body weight” value [34] was 14%. For the same molecule, the “protection (survival)” value [34] was “fully protected”, the pIC50 [35, 39] was at most 6.52 and the pIC50 [35, 40] was under 6.52. The pEC50 [36] was 7.73 and 7.47, the pEC50 ([37]; read-out: CPE against influenza B, EC50, B/Brisbane) was 6.01 and the pEC50 ([37]; read-out: CPE against influenza B, EC50, B/Florida) was under 5.00. For the same molecule, the pEC50 ([37]; read-out: CPE against influenza B, EC50, B/Malaysia) was 5.24 and the pIC50 [38] was […].
